Reference: the supplement of paper PMC10307832

compound: COc1cc2nc(N3CCCN(C)CC3)nc(NC3CCN(Cc4ccccc4)CC3)c2cc1OC; assay: relative viability (nuclei count vs DMSO), 5 days (fraction); higher = more cells survive; conditions: 0.2 µM
Summary of the method: (§1)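 Acceptance criteria were a control CV below 25% and at least one doubling per plate. Lung cancer cell lines in 1536-well plates got five library-drug doses (not always all listed) √10 apart by pinning and were left 5 days with no medium change. Viability divides treated-well nuclei by vehicle-well nuclei and is the median across plates. Nuclei were counted by MetaXpress from 4× Hoechst images.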

In order of rising relative viability:
1. NCI-H322M  0.856
2. COR-L 105  0.868
3. LU99A  0.868
4. HARA  0.895
5. H3255  0.915
6. NCI-H2087  0.921
7. A-427  0.922
8. NCI-H1395  0.925
9. LCLC-97TM1  0.936
10. HCC-78  0.937
11. IA-LM  0.941
12. COR-L23  0.942
13. LOU-NH91  0.96
14. HOP-62  0.965
15. NCI-H1734  0.967
16. NCI-H596  0.969
17. NCI-H23  0.975
18. 201T  0.976
19. NCI-H661  0.978
20. NCI-H1915  0.978
21. HCC-44  0.98
22. LXF-289  0.99
23. NCI-H460  0.997
24. LK-2  1
25. SK-MES-1  1.01
26. SK-LU-1  1.01
27. NCI-H2170  1.02
28. A549  1.02
29. NCI-H2347  1.02
30. NCI-H2405  1.03
31. BEN  1.03
32. NCI-H2009  1.04
33. HCC-827  1.05

same assay, conditions: 0.6325 µM

In order of rising relative viability:
1. LU99A  0.838
2. IA-LM  0.865
3. NCI-H1734  0.876
4. NCI-H1915  0.908
5. NCI-H2009  0.94
6. HOP-62  0.954
7. NCI-H23  0.962
8. NCI-H2170  0.963
9. NCI-H2347  0.975
10. H3255  0.986
11. NCI-H661  0.987
12. LXF-289  0.993
13. NCI-H2087  0.995
14. HCC-44  0.996
15. LCLC-97TM1  0.996
16. SK-MES-1  1.01
17. A549  1.01
18. NCI-H460  1.01
19. SK-LU-1  1.01
20. HCC-366  1.03
21. COR-L23  1.03
22. HCC-78  1.04
23. HCC-827  1.04
24. NCI-H1666  1.05
25. 201T  1.05
26. BEN  1.06
27. A-427  1.06
28. COR-L 105  1.08
29. NCI-H2405  1.08
30. LK-2  1.09
31. NCI-H322M  1.09
32. NCI-H1395  1.09
33. LOU-NH91  1.13
34. HARA  1.13
35. NCI-H596  1.19

same assay, conditions: 2 µM

In order of falling relative viability:
1. BEN  1.19
2. NCI-H2009  1.17
3. NCI-H2405  1.13
4. H3255  1.1
5. HOP-62  1.1
6. LCLC-97TM1  1.09
7. IA-LM  1.08
8. HARA  1.08
9. HCC-78  1.08
10. SK-LU-1  1.08
11. LK-2  1.06
12. COR-L23  1.06
13. NCI-H1915  1.06
14. NCI-H23  1.05
15. NCI-H2347  1.04
16. LXF-289  1.04
17. NCI-H2087  1.03
18. SK-MES-1  1.03
19. LU99A  1.03
20. A-427  1.01
21. 201T  1.01
22. NCI-H2170  1
23. NCI-H661  1
24. HCC-827  1
25. HCC-44  0.998
26. A549  0.992
27. NCI-H460  0.992
28. NCI-H1395  0.976
29. HCC-366  0.968
30. NCI-H596  0.964
31. NCI-H1666  0.947
32. NCI-H322M  0.9
33. NCI-H1734  0.889
34. LOU-NH91  0.838
35. COR-L 105  0.793

same assay, conditions: 6.325 µM

In order of rising relative viability:
1. COR-L 105  0.621
2. NCI-H1395  0.787
3. SK-MES-1  0.791
4. NCI-H596  0.836
5. NCI-H322M  0.854
6. NCI-H1734  0.855
7. IA-LM  0.862
8. A-427  0.882
9. LU99A  0.885
10. NCI-H1666  0.903
11. HARA  0.919
12. NCI-H23  0.927
13. NCI-H2009  0.932
14. A549  0.935
15. LCLC-97TM1  0.947
16. HOP-62  0.96
17. H3255  0.961
18. NCI-H1915  0.973
19. NCI-H2170  0.975
20. NCI-H460  0.978
21. HCC-44  0.981
22. LOU-NH91  0.983
23. 201T  0.983
24. NCI-H2405  0.989
25. LK-2  0.995
26. NCI-H2347  1
27. LXF-289  1
28. HCC-366  1.01
29. NCI-H661  1.01
30. HCC-827  1.01
31. HCC-78  1.02
32. SK-LU-1  1.02
33. COR-L23  1.03
34. BEN  1.04
35. NCI-H2087  1.09

compound: Cc1cc([C@@H](C)Nc2ccccc2C(=O)O)c2nc(N3CCOCC3)cc(=O)n2c1 [AZD6482]; assay: as above; conditions: 0.08 µM
Summary of the method: as §1

In order of falling relative viability:
1. HOP-62  1.11
2. LK-2  1.07
3. LCLC-97TM1  1.03
4. NCI-H2009  1.02
5. LXF-289  1.01
6. H3255  0.996
7. NCI-H1915  0.996
8. NCI-H661  0.981
9. IA-LM  0.979
10. HCC-827  0.979
11. 201T  0.977
12. HCC-366  0.975
13. NCI-H23  0.967
14. A-427  0.965
15. NCI-H460  0.963
16. A549  0.935
17. LU99A  0.915
18. NCI-H2170  0.909
19. NCI-H1734  0.905
20. BEN  0.889
21. HCC-44  0.873
22. LOU-NH91  0.852
23. NCI-H322M  0.847
24. NCI-H596  0.844
25. HARA  0.844
26. NCI-H1666  0.842
27. NCI-H2087  0.841
28. COR-L 105  0.825
29. COR-L23  0.808
30. SK-MES-1  0.794
31. NCI-H2405  0.749
32. HCC-78  0.749
33. NCI-H1395  0.742
34. NCI-H2347  0.627

same assay, conditions: 0.253 µM

In order of rising relative viability:
1. NCI-H1395  0.539
2. HCC-78  0.622
3. NCI-H2405  0.672
4. NCI-H2347  0.785
5. BEN  0.791
6. NCI-H322M  0.822
7. NCI-H23  0.861
8. LCLC-97TM1  0.865
9. A-427  0.884
10. LU99A  0.894
11. NCI-H2170  0.897
12. NCI-H1915  0.897
13. COR-L 105  0.904
14. NCI-H1734  0.907
15. NCI-H596  0.91
16. LK-2  0.915
17. H3255  0.918
18. LOU-NH91  0.918
19. SK-MES-1  0.946
20. NCI-H1666  0.95
21. A549  0.965
22. NCI-H460  0.969
23. 201T  0.97
24. HCC-44  0.971
25. HARA  0.978
26. SK-LU-1  0.978
27. HCC-366  0.979
28. NCI-H661  0.98
29. IA-LM  0.99
30. NCI-H2087  0.996
31. COR-L23  1.02
32. HCC-827  1.02
33. NCI-H2009  1.04
34. LXF-289  1.07
35. HOP-62  1.1

same assay, conditions: 0.8 µM

In order of falling relative viability:
1. NCI-H2087  1.35
2. HARA  1.13
3. HOP-62  1.09
4. NCI-H1915  1.09
5. COR-L23  1.08
6. LK-2  1.07
7. NCI-H2009  1.06
8. LXF-289  1.06
9. BEN  1.05
10. LU99A  1.04
11. NCI-H1734  1.04
12. IA-LM  1.03
13. NCI-H2405  1.03
14. SK-LU-1  1.03
15. A-427  1.02
16. HCC-827  1.02
17. NCI-H460  1.01
18. HCC-44  1
19. NCI-H23  1
20. HCC-366  0.996
21. NCI-H1666  0.984
22. H3255  0.979
23. NCI-H661  0.973
24. 201T  0.969
25. LOU-NH91  0.959
26. A549  0.947
27. NCI-H2170  0.944
28. NCI-H596  0.92
29. COR-L 105  0.874
30. LCLC-97TM1  0.855
31. NCI-H322M  0.838
32. NCI-H2347  0.805
33. SK-MES-1  0.709
34. NCI-H1395  0.697
35. HCC-78  0.632

same assay, conditions: 2.53 µM

In order of falling relative viability:
1. HCC-44  1.05
2. LXF-289  0.93
3. NCI-H596  0.909
4. NCI-H1915  0.893
5. HCC-366  0.885
6. HCC-827  0.854
7. NCI-H1666  0.853
8. NCI-H2170  0.851
9. NCI-H460  0.846
10. COR-L23  0.845
11. HOP-62  0.833
12. LK-2  0.818
13. BEN  0.803
14. LU99A  0.797
15. HARA  0.782
16. 201T  0.771
17. SK-LU-1  0.722
18. H3255  0.688
19. NCI-H661  0.671
20. A-427  0.651
21. NCI-H2405  0.631
22. NCI-H2347  0.617
23. NCI-H1734  0.611
24. LOU-NH91  0.61
25. NCI-H23  0.61
26. NCI-H2009  0.59
27. COR-L 105  0.577
28. A549  0.566
29. NCI-H2087  0.555
30. NCI-H322M  0.495
31. NCI-H1395  0.443
32. SK-MES-1  0.405
33. HCC-78  0.372

same assay, conditions: 8 µM

In order of falling relative viability:
1. NCI-H2087  1.08
2. NCI-H1666  1.05
3. HCC-44  1.03
4. HOP-62  1.01
5. NCI-H1915  1.01
6. A-427  0.974
7. LXF-289  0.973
8. 201T  0.958
9. LU99A  0.948
10. NCI-H596  0.929
11. NCI-H2170  0.927
12. HCC-827  0.918
13. HARA  0.875
14. BEN  0.853
15. NCI-H661  0.851
16. IA-LM  0.842
17. LCLC-97TM1  0.836
18. H3255  0.835
19. COR-L23  0.834
20. HCC-366  0.827
21. NCI-H460  0.822
22. COR-L 105  0.801
23. NCI-H1734  0.795
24. LK-2  0.781
25. A549  0.769
26. LOU-NH91  0.744
27. NCI-H2009  0.74
28. NCI-H2347  0.664
29. NCI-H322M  0.633
30. NCI-H23  0.624
31. NCI-H2405  0.599
32. SK-LU-1  0.592
33. NCI-H1395  0.527
34. SK-MES-1  0.444
35. HCC-78  0.405
